Measured values taken from the supplement of paper PMC5844555.

How the values were obtained:
Assay in all cases: 3' UTR reporter interaction score (median-centred robust z-score of log2 firefly/Renilla activity); higher = less repression of the 3' UTR reporter
Conditions in all cases: HEK293T; 48 h
TP53 = test system: TP53
How it was run: (§1)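 A firefly luc2P reporter carrying the gene's 3' UTR (100 ng), Renilla pRL-TK control (20 ng) and miRNA mimic (2.5 pmol) were co-transfected with DharmaFECT Duo into HEK293T cells plated at 10,000/well in 96-well plates. Luciferase activities were read 48 h post-transfection. The interaction score is the log firefly/Renilla ratio as a per-plate robust z-score from median and median absolute deviation, median-centred per miRNA, and more negative indicates interaction. Values are averages of at least two independent screens.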

ZEB2 = test system: ZEB2
How it was run: as §1

HRAS = test system: HRAS
How it was run: as §1

FBXW7 = test system: FBXW7
How it was run: as §1

MYT1L = test system: MYT1L
How it was run: as §1

PHF6 = test system: PHF6
How it was run: as §1

MYCN = test system: MYCN
How it was run: as §1

NOTCH1 = test system: NOTCH1
How it was run: as §1

MYC = test system: MYC
How it was run: as §1

PHOX2B = test system: PHOX2B
How it was run: as §1

MYB = test system: MYB
How it was run: as §1

BRCA2 = test system: BRCA2
How it was run: as §1

RB1 = test system: RB1
How it was run: as §1

EZH2 = test system: EZH2
How it was run: as §1

Sequence | 3' UTR reporter interaction score (TP53) | 3' UTR reporter interaction score (ZEB2) | 3' UTR reporter interaction score (HRAS) | 3' UTR reporter interaction score (FBXW7) | 3' UTR reporter interaction score (MYT1L) | 3' UTR reporter interaction score (PHF6) | 3' UTR reporter interaction score (MYCN) | 3' UTR reporter interaction score (NOTCH1) | 3' UTR reporter interaction score (MYC) | 3' UTR reporter interaction score (PHOX2B) | 3' UTR reporter interaction score (MYB) | 3' UTR reporter interaction score (BRCA2) | 3' UTR reporter interaction score (RB1) | 3' UTR reporter interaction score (EZH2)
AAAAGCUGGGUUGAGAGGGCGAA | -0.479 | 1.15 | -0.583 | 0.0632 | -0.165 | 0.0922 | 0.121 | 0.666 | 0.0971 | -1.64 | 1.19 | 0.138 | 0.499 | -2.65
AAAAGUGCUUACAGUGCAGGUAGC | -0.24 | 0.747 | 0.892 | -0.263 | -1.75 | 1.56 | -0.211 | 0.451 | 0.278 | -0.496 | -0.0116 | 0.703 | 0.176 | -0.783
AAAAUGGUUCCCUUUAGAGUGUU | -1.35 | -1.19 | 0.747 | 0.697 | 0.818 | 0.573 | 0.195 | -2.3 | 0.494 | -0.183 | -0.486 | -1.38 | -2.85 | 0.888
AAACAAACAUGGUGCACUUCUUU | -0.293 | -0.365 | -0.444 | -0.367 | -1.89 | -1.41 | 0.437 | 0.581 | 0.601 | 0.00827 | 0.209 | -0.147 | 1.09 | 1.82
AAACCUGUGUUGUUCAAGAGUC | 0.0666 | -1.07 | 0.374 | 0.0167 | -0.496 | -0.148 | -0.75 | 0.0529 | -0.2 | -2.54 | -0.47 | 1.31 | -0.803 | 0.928
AAACUACUGAAAAUCAAAGAU | 0.261 | -1.71 | -0.566 | -0.0213 | -0.7 | 0.0968 | -0.411 | -0.667 | 0.0375 | -0.331 | 0.63 | 0.536 | 0.321 | -0.0901
AAACUCUACUUGUCCUUCUGAGU | 0.757 | -1.55 | 0.16 | 2.09 | -0.888 | -0.863 | -0.333 | 0.753 | -0.658 | 0.571 | 0.312 | 1.32 | 0.409 | -0.108
AAAGACAUAGGAUAGAGUCACCUC | 0.557 | 0.2 | -0.101 | 1.01 | -1.82 | -0.548 | -0.0475 | -1.33 | -0.142 | 0.476 | 0.438 | -0.417 | -0.442 | -0.299
AAAGCGCUUCCCUUCAGAGUGU | 0.336 | -0.49 | -0.152 | 1.07 | -0.332 | 0.134 | -0.904 | 0.385 | -0.758 | 1.41 | 0.692 | -0.304 | -1.21 | -0.357
